Assay results reported in US12662491B2 (Redona Therapeutics, Inc., priority 2020, dated 2026).

target: T1, Zcchc11 enzyme (Homo sapiens, UniProt Q5TAX3); test: TUTase assay (Zcchc11 assay, Lin28a-dependent polyuridylation of pre-let-7); format: biochemical; conditions: LIN28A 10 nM, Zcchc11 0.2 nM, 5′-fluorescein pre-let-7 miRNA 2 nM, UTP 5 uM, room temperature, 30 minutes pre-incubation; read-out: Potency Lin28a-dep Z11 IC50
T1 construct: made in house; host or cells: HEK293 cells (Zcchc11); E. coli Rosetta II (LIN28A)
T1 sequence (Q5TAX3 212-1420): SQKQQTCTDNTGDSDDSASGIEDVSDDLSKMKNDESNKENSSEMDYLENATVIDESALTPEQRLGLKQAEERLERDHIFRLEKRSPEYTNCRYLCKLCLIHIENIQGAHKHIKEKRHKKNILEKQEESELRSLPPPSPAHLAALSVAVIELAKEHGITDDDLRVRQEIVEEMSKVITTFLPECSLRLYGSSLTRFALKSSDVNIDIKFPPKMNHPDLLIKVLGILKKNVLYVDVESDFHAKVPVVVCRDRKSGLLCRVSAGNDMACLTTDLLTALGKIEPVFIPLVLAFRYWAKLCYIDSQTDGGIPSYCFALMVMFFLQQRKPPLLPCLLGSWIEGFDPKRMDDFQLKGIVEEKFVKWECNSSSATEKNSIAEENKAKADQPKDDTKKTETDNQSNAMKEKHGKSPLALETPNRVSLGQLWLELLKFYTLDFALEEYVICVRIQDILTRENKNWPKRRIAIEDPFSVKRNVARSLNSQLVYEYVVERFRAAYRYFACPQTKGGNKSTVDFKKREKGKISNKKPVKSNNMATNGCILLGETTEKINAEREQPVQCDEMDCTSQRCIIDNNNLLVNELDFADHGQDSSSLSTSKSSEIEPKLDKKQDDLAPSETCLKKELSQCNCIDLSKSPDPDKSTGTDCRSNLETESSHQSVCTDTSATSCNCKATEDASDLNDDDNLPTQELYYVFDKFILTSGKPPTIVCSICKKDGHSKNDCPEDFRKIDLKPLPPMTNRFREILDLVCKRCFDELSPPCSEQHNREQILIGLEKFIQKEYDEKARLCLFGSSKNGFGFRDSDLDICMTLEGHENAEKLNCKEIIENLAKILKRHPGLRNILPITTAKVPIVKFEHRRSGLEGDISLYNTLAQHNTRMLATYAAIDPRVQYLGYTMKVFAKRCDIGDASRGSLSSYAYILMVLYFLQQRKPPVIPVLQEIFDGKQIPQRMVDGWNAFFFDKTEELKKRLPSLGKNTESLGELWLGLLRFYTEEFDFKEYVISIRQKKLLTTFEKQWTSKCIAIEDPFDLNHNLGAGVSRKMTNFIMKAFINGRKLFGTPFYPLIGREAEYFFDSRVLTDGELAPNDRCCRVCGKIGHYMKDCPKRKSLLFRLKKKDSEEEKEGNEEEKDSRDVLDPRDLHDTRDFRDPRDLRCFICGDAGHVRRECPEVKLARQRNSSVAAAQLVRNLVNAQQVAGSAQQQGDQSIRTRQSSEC
Summary of the method: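 Readout: time-dependent quench of 5′-fluorescein pre-let-7 (2 nM) as 3′-rhodamine A20 probe anneals to poly(U) tails. Enzyme 0.2 nM Zcchc11 (res. 212-1420), LIN28A 10 nM, UTP 5 uM; pH 7.3 HEPES, 150 mM KCl, 5 mM MgCl2, RT. 4-parameter IC50; 100% = DMSO, 0% = no UTP.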

Row | SMILES | IC50 [µM]
1 | Cc1cccnc1OC[C@H]1CCCN1c1cc2c(cc1F)c(=O)c(C(=O)O)cn2-c1ccc(OCCN(C)C)cc1 [Example 17, (R)-1-(4-(2-(dimethylamino)ethoxy)phenyl)-6-fluoro-7-(2-(((3-methylpyridin-2-yl)oxy)methyl)pyrrolidin-1-yl)-4-oxo-1,4-dihydroquinoline-3-carboxylic acid] | ≤ 1
2 | Cc1cccnc1OC[C@H]1CCCN1c1c(F)cc2c(=O)c(C(=O)O)cn(-c3ccc(O)cc3F)c2c1F [Example 20, (R)-6,8-difluoro-1-(2-fluoro-4-hydroxyphenyl)-7-(2-(((3-methylpyridin-2-yl)oxy)methyl)pyrrolidin-1-yl)-4-oxo-1,4-dihydroquinoline-3-carboxylic acid] | ≤ 1
3 | O=C(O)c1cn(-c2ccc(OCCO)cc2)c2cc(N3CCC[C@@H]3COc3ncccc3Br)c(F)cc2c1=O [Example 21, (R)-7-(2-(((3-bromopyridin-2-yl)oxy)methyl)pyrrolidin-1-yl)-6-fluoro-1-(4-(2-hydroxyethoxy)phenyl)-4-oxo-1,4-dihydroquinoline-3-carboxylic acid] | ≤ 1
4 | Cc1ccnn(C[C@H]2CCCN2c2cc3c(cc2F)c(=O)c(C(=O)O)cn3-c2ccc(O)cc2)c1=O [Example 23, (R)-6-fluoro-1-(4-hydroxyphenyl)-7-(2-((5-methyl-6-oxopyridazin-1(6H)-yl)methyl)pyrrolidin-1-yl)-4-oxo-1,4-dihydroquinoline-3-carboxylic acid] | ≤ 1
5 | CC1(n2cc(C(=O)O)c(=O)c3cc(Cl)c(N4C(=O)CC[C@@H]4COc4ccccn4)cc32)CC1 [Example 24, (R)-6-chloro-1-(1-methylcyclopropyl)-4-oxo-7-(2-oxo-5-((pyridin-2-yloxy)methyl)pyrrolidin-1-yl)-1,4-dihydroquinoline-3-carboxylic acid] | > 50
6 | COCC1CC(n2cc(C(=O)O)c(=O)c3cc(F)c(N4CCC[C@@H]4COc4ccccn4)cc32)C1 (stereo partly drawn) [Example 25, 6-fluoro-1-[3-(methoxymethyl)cyclobutyl]-4-oxo-7-[(2R)-2-[(pyridin-2-yloxy)methyl]pyrrolidin-1-yl]-1,4-dihydroquinoline-3-carboxylic acid] | 10 to 50
7 | O=C(O)c1cn(C2CC2)c2c(F)c(N3CCC[C@@H]3COc3cccnn3)c(F)cc2c1=O [Example 29, (R)-1-cyclopropyl-6,8-difluoro-4-oxo-7-(2-((pyridazin-3-yloxy)methyl)pyrrolidin-1-yl)-1,4-dihydroquinoline-3-carboxylic acid] | 1 to 10
8 | COC1CC(n2cc(C(=O)O)c(=O)c3cc(F)c(N4CCC[C@@H]4COc4ncccc4C)cc32)C1 (stereo partly drawn) [Example 30, (R)-6-fluoro-1-(3-methoxycyclobutyl)-7-(2-(((3-methylpyridin-2-yl)oxy)methyl)pyrrolidin-1-yl)-4-oxo-1,4-dihydroquinoline-3-carboxylic acid] | ≤ 1
9 | CCS(=O)(=O)Nc1ccc(-n2cc(C(=O)O)c(=O)c3cc(Cl)c(N4CCC[C@@H]4COc4ncccc4Cl)cc32)cc1 [Example 31, (R)-6-chloro-7-(2-(((3-chloropyridin-2-yl)oxy)methyl)pyrrolidin-1-yl)-1-(4-(ethylsulfonamido)phenyl)-4-oxo-1,4-dihydroquinoline-3-carboxylic acid] | ≤ 1
10 | O=C(O)c1cn(C2CN(CCO)C2)c2cc(N3CCC[C@@H]3COc3ncccc3Cl)c(Cl)cc2c1=O [Example 34, 6-Chloro-7-[(2R)-2-{[(3-chloropyridin-2-yl)oxy]methyl}pyrrolidin-1-yl]-1-[1-(2-hydroxyethyl)azetidin-3-yl]-4-oxo-1,4-dihydroquinoline-3-carboxylic acid] | 1 to 10
11 | Cc1cccnc1OC[C@H]1CCCN1c1cc2c(cc1C#N)c(=O)c(C(=O)O)cn2C1(C)CC1 [Example 35, 6-Cyano-1-(1-methylcyclopropyl)-7-[(2R)-2-{[(3-methylpyridin-2-yl)oxy]methyl}pyrrolidin-1-yl]-4-oxo-1,4-dihydroquinoline-3-carboxylic acid] | ≤ 1
12 | CC(=O)N1CC(n2cc(C(=O)O)c(=O)c3cc(Cl)c(N4CCC[C@@H]4COc4ncccc4C)cc32)C1 [Example 36, 1-(1-Acetylazetidin-3-yl)-6-chloro-7-[(2R)-2-{[(3-methylpyridin-2-yl)oxy]methyl}pyrrolidin-1-yl]-4-oxo-1,4-dihydroquinoline-3-carboxylic acid] | 1 to 10
13 | COCCN1CC(C)(n2cc(C(=O)O)c(=O)c3cc(Cl)c(N4CCC[C@@H]4COc4ncccc4Cl)cc32)C1 [Example 37, 6-Chloro-7-[(2R)-2-{[(3-chloropyridin-2-yl)oxy]methyl}pyrrolidin-1-yl]-1-[1-(2-methoxyethyl)-3-methylazetidin-3-yl]-4-oxo-1,4-dihydroquinoline-3-carboxylic acid] | 1 to 10

Second part, the molecule after the results:

Row | IC50 [µM] | SMILES
14 | ≤ 1 | CN(C)CCOc1cnc(-n2cc(C(=O)O)c(=O)c3cc(F)c(N4CCC[C@@H]4COc4ncccc4Cl)cc32)cn1 [Example 16, (R)-7-(2-(((3-chloropyridin-2-yl)oxy)methyl)pyrrolidin-1-yl)-1-(5-(2-(dimethylamino)ethoxy)pyrazin-2-yl)-6-fluoro-4-oxo-1,4-dihydroquinoline-3-carboxylic acid]
15 | ≤ 1 | O=C(O)c1cn(-c2ccc3c(c2)COC3)c2cc(N3CCC[C@@H]3COc3ncccc3Cl)c(Cl)cc2c1=O [Example 18, (R)-6-chloro-7-(2-(((3-chloropyridin-2-yl)oxy)methyl)pyrrolidin-1-yl)-1-(1,3-dihydroisobenzofuran-5-yl)-4-oxo-1,4-dihydroquinoline-3-carboxylic acid]
16 | ≤ 1 | O=C(O)c1cn(-c2cnccn2)c2nc(N3CCC[C@@H]3COc3ncccc3Cl)c(Cl)cc2c1=O [Example 19, (R)-6-chloro-7-(2-(((3-chloropyridin-2-yl)oxy)methyl)pyrrolidin-1-yl)-4-oxo-1-(pyrazin-2-yl)-1,4-dihydro-1,8-naphthyridine-3-carboxylic acid]
17 | 1 to 10 | O=C(O)c1cn(-c2ccc(O)cc2F)c2cc(N3CCC[C@@H]3COc3ncccn3)c(F)cc2c1=O [Example 22, (R)-6-fluoro-1-(2-fluoro-4-hydroxyphenyl)-4-oxo-7-(2-((pyrimidin-2-yloxy)methyl)pyrrolidin-1-yl)-1,4-dihydroquinoline-3-carboxylic acid]
18 | ≤ 1 | CS(=O)(=O)Nc1ccc(-n2cc(C(=O)O)c(=O)c3cc(Cl)c(N4CCC[C@@H]4COc4ncccc4Cl)cc32)cn1 [Example 26, 6-chloro-7-[(2R)-2-{[(3-chloropyridin-2-yl)oxy]methyl}pyrrolidin-1-yl]-1-(6-methanesulfonamidopyridin-3-yl)-4-oxo-1,4-dihydroquinoline-3-carboxylic acid]
19 | 1 to 10 | O=C(O)c1cn(-c2cncc(O)n2)c2cc(N3CCC[C@@H]3COc3ccccn3)c(F)cc2c1=O [Example 27, (R)-6-fluoro-1-(6-hydroxypyrazin-2-yl)-4-oxo-7-(2-((pyridin-2-yloxy)methyl)pyrrolidin-1-yl)-1,4-dihydroquinoline-3-carboxylic acid]
20 | ≤ 1 | NC1CN(c2ccc(-n3cc(C(=O)O)c(=O)c4cc(Cl)c(N5CCC[C@@H]5COc5ncccc5Cl)cc43)cn2)C1 [Example 28, (R)-1-(6-(3-aminoazetidin-1-yl)pyridin-3-yl)-6-chloro-7-(2-(((3-chloropyridin-2-yl)oxy)methyl)pyrrolidin-1-yl)-4-oxo-1,4-dihydroquinoline-3-carboxylic acid]
21 | ≤ 1 | O=C(O)c1cn(-c2ccc3c(c2F)CCN3)c2cc(N3CCC[C@@H]3COc3ccccn3)c(F)cc2c1=O [Example 32, (R)-6-fluoro-1-(4-fluoroindolin-5-yl)-4-oxo-7-(2-((pyridin-2-yloxy)methyl)pyrrolidin-1-yl)-1,4-dihydroquinoline-3-carboxylic acid]
22 | ≤ 1 | O=C(O)c1cn(-c2cnc(O)cn2)c2cc(N3CCC[C@@H]3COc3ccccn3)c(Cl)cc2c1=O [Example 33, 6-chloro-1-(5-hydroxypyrazin-2-yl)-4-oxo-7-[(2R)-2-[(pyridin-2-yloxy)methyl]pyrrolidin-1-yl]-1,4-dihydroquinoline-3-carboxylic acid]
